Data set [1] relates to human breast cancer (MCF-7 cell lines). As to the kind of experiment: MTT cytotoxicity assay, MCF-7. The class given is cell-based. The conditions noted are these: for cytotoxicity at 100 µM: MCF7, 48 h; for IC50: MCF7, MTT, 0.78–100 µM, ± SD. As for the experimental part:
(§1) The synthesized compounds were studied for their cytotoxic activity against several human cancer cell lines, namely human osteosarcoma (HOS cell lines), human breast adenocarcinoma (MDA-MB-231 cell lines), human breast cancer (MCF-7 cell lines), human colorectal adenocarcinoma (Caco-2 cell lines) and human colon cell line (HCT-116 cell lines) using MTT assay at 100 µM, and the results were outlined as shown in Table 1.
(§2) Human osteosarcoma (HOS cell line), human breast adenocarcinoma (MDA-MB-231cell lines), human breast cancer (MCF-7 cell lines), human colorectal adenocarcinoma (Caco2 cell lines), human colon cell line (HCT-116 cell lines), normal human cell lines (BJ-1), and “a telomerase immortalized normal foreskin fibroblast cell line” were obtained from Karolinska Center, Department of Oncology and Pathology, Karolinska Institute and Hospital, Stockholm, Sweden.
(§3) Following culturing for 10 days, the cells were seeded at concentration of 10 × 10^3 cells per well in case of MCF-7 & MDA, 20 × 10^3 cells/well in a fresh complete growth medium in case of HCT-116, Caco2, & HOS and 40 × 10^3 cells/well in case of BJ-1 at 37 °C for 24 h in a water jacketed carbon dioxide incubator. After 48 h’ incubation, the medium was aspirated, and then 40 μl MTT salt (2.5 mg/mL) were added for a further 4 h; 200 μl 10% sodium dodecyl sulphate (SDS) in deionized water were added to each well and incubated overnight at 37 °C. The absorbance was measured at 595 nm with reference 690 nm. Doxorubicin was used as positive control, and 0.5% DMSO was used as negative control. IC50 values were calculated, using a probit analysis, and by utilizing the SPSS computer program (SPSS for Windows, statistical analysis software package/version 9/1989 SPSS Inc., Chicago, IL, USA).
In general terms: Formazan colour is commonly taken as a measure of viable cells.

Data set [2] has as its target VEGFR-2 (Homo sapiens, UniProt P35968). As to the kind of experiment: VEGFR-2 inhibitory assay (ELISA). The data set is classed as biochemical. Conditions: for IC50: mean of three values, read-out: IC50 (Mean ± SEM), VEGFR-2. The procedure:
The cells were harvested, and the homogenates were prepared in saline using a tight pestle homogenizer until complete cell disruption. The kit uses a double-antibody sandwich enzyme-linked immunosorbent assay (ELISA) to determine the level of human VEGFR-2 in samples. A monoclonal antibody for VEGFR-2 was pre-coated onto 96-well plates. The test samples are added to the wells, and a biotinylated detection polyclonal antibody from goat specific for VEGFR-2 was added subsequently followed by washing with PBS buffer. Avidin-Biotin-Peroxidase complex was added, and the unbound conjugates were washed away with PBS buffer. HRP substrate TMB was used to visualize HRP enzymatic reaction. TMB was catalyzed by HRP to produce a blue color product that changed into yellow after adding acidic stop solution. The density of yellow color is proportional to the human VEGFR-2 amount of the sample captured in the plate. The chroma of color and the concentration of the human VEGFR-2 of the samples were positively correlated, and the optical density was determined at 450 nm. The level of human VEGFR-2 in samples was calculated (pg/ml) as duplicate determinations from the standard curve. Percent inhibition was calculated in comparison to control untreated cells.
On the technique in general: In an ELISA, binding on a coated surface is turned into a signal by an enzyme label.

In data set [3] the target is CDK-2/cyclin A2 (Homo sapiens, UniProt P24941). As to the kind of experiment: CDK-2/cyclin A2 inhibitory assay (ELISA). The class given is biochemical. Conditions: for IC50: mean of three values, read-out: IC50 (Mean ± SEM), CDK-2/Cyclin A2. As for the experimental part:
Assay of CDK-2/cyclin A2 was achieved through ELISA using an affinity tag labeled capture antibody. […] After the incubation period, the unrestrained substance has been discarded, and the wells have been washed. The added TMB (3,3′,5,5′-tetramethylbenzidine) substrate was prompted by Horseradish peroxidase (HRP), and blue coloration appeared. This reaction was stopped through the addition of stop solution to complete changing in colour from blue to yellow. The created signals were equivalent to the quantity of bound analyte, and the Robonik P2000 ELISA reader was used to record the intensity at a certain wavelength (450 nm).

Data set [4] has as its target EGFR (Homo sapiens, UniProt P00533). The data set can be described thus: EGFR kinase inhibitory assay (Kinase-Glo Max luminescence). The class given is biochemical. Conditions: for IC50: mean of three values, read-out: IC50 (Mean ± SEM), EGFR. Background: Kinase-Glo measures the ATP left after a reaction by luminescence.
The test system of data set [5] is human osteosarcoma (HOS cell lines). As to the kind of experiment: MTT cytotoxicity assay, HOS. The data set is classed as cell-based. Conditions: 48 h. As for the experimental part: as §1, §2, §3
Data set [6] concerns human colon cell line (HCT-116 cell lines). The data set can be described thus: MTT cytotoxicity assay, HCT-116. The class given is cell-based. Conditions: for cytotoxicity at 100 µM: HCT-116, 48 h. The procedure: as §1, §2, §3
Data set [7] relates to human breast adenocarcinoma (MDA-MB-231 cell lines). The data set can be described thus: MTT cytotoxicity assay, MDA-MB-231. The class given is cell-based. The conditions noted are these: MDA-MB-231, 48 h. The procedure:
as §1, §2, §3

In data set [8] the test system is human colorectal adenocarcinoma (Caco-2 cell lines). As to the kind of experiment: MTT cytotoxicity assay, Caco-2. The data set is classed as cell-based. Conditions: Caco-2, 48 h. As for the experimental part:
as §1, §2, §3

Data set [9] concerns normal human skin cell lines BJ-1. As to the kind of experiment: Safety on normal human skin cells BJ-1 (MTT). The data set is classed as cell-based. Conditions: 100 µM. As for the experimental part:
To determine the selectivity and safety, all tested compounds were subjected to an assay for their safety upon normal human skin cell lines BJ-1 at a concentration of 100 µM.
as §2, §3

Structures are written as SMILES.

Sequence of VEGFR-2 (P35968 20-1356): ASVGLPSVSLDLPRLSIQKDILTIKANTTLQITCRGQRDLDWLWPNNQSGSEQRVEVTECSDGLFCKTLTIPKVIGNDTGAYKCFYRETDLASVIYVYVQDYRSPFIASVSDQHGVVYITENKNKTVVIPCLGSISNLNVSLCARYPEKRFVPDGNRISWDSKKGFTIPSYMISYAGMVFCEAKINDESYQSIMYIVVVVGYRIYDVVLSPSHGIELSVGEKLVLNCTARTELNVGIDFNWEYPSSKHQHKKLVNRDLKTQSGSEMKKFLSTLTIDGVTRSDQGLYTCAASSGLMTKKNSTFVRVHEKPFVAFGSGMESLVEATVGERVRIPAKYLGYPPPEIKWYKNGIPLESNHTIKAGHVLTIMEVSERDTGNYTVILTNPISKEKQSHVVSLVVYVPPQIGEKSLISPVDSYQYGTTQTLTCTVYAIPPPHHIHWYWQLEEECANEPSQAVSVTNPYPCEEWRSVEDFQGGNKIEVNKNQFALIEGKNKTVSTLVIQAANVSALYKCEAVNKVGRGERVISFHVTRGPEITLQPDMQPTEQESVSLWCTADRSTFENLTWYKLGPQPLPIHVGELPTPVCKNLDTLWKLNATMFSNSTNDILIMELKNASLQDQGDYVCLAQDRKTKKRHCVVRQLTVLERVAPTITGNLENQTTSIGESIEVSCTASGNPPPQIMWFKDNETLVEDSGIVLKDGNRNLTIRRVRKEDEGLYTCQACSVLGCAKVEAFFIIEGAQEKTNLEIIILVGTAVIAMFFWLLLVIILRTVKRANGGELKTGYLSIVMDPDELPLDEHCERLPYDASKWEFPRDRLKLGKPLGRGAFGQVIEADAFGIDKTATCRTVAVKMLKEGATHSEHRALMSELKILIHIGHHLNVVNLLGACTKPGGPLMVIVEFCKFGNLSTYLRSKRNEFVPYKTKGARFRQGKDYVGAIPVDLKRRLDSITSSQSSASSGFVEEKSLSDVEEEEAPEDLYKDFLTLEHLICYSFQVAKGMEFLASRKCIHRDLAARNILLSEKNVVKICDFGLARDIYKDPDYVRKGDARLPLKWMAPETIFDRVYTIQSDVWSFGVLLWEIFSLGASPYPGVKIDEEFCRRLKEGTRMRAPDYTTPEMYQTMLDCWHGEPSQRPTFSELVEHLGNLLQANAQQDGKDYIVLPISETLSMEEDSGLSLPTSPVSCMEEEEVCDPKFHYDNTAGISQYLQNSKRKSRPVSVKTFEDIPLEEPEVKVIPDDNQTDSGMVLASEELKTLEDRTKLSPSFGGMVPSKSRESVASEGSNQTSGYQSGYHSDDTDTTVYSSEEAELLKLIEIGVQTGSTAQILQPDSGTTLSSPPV
Sequence of EGFR (P00533 25-1210): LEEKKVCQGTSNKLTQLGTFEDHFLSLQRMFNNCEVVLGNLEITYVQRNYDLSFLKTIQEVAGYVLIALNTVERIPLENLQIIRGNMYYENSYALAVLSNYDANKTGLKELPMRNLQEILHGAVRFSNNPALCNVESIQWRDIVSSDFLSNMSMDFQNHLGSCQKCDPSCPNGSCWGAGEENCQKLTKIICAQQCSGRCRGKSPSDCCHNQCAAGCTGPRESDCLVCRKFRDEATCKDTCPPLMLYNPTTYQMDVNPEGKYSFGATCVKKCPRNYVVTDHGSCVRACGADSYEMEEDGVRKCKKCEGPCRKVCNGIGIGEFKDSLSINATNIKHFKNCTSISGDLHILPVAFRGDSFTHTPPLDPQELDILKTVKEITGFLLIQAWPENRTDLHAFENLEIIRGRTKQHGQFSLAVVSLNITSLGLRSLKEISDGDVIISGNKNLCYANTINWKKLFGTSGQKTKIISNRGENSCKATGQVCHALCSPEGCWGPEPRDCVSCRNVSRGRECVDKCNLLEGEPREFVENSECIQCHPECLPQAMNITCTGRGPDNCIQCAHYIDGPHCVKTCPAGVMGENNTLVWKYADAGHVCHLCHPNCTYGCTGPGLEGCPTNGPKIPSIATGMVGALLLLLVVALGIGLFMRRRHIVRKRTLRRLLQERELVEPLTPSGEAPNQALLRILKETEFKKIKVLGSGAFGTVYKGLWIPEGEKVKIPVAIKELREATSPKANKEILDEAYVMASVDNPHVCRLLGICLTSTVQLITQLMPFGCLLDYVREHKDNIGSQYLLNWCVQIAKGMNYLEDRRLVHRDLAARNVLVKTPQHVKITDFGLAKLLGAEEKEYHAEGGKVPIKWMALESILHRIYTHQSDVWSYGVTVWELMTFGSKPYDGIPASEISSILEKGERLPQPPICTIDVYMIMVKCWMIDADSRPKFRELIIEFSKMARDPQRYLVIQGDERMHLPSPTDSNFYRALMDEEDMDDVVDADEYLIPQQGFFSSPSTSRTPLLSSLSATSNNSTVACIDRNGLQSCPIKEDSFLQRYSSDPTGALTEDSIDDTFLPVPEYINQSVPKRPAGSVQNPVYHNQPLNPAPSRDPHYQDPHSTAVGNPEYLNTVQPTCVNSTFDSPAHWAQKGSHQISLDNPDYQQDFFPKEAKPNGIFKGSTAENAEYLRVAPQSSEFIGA

For orientation: melting point means the temperature of the solid-liquid transition. The compound `Cn1c(COc2ccc3c(-c4ccccc4)cc(=O)oc3c2)nnc1SC1OCC(O)C(O)C1O` [Compound 8, 4-Phenyl-7-((4-methyl-5-(1-(β-D-xylopyranosyl)thio)-4H-1,2,4-triazol-3-yl)meth-oxy)-2H-chromen-2-one] returned a melting point of 231 to 232 °C. Further, in [1], the cytotoxicity at 100 µM was 60.1 ± 0.7% and the IC50 stood at 52.2 ± 1.3 µM. In addition, in data set [2], the IC50 is 0.93 ± 0.42 µM. The IC50 in data set [3] worked out at 0.24 ± 0.2 µM. Moreover, in data set [4], the IC50 was 0.22 ± 0.01 µM. Moreover, the cytotoxicity at 100 µM in [5] was 41.9 ± 0.7%. This compound also showed a cytotoxicity at 100 µM in [6] of 23 ± 0.6%. Moreover, the cytotoxicity at 100 µM in data set [7] was 37.1 ± 2.3%. In addition, the cytotoxicity at 100 µM in data set [8] was 28.4 ± 0.6%.
As to `Cn1c(COc2ccc3c(-c4ccccc4)cc(=O)oc3c2)nnc1SCCOCCO` [Compound 11, 4-Phenyl-7-((5-((2-(2-hydroxyethoxy)ethyl)thio)-4-methyl-4H-1,2,4-triazol-3-yl)methoxy)-2H-chromen-2-one], the melting point is 155 to 156 °C. In [1], this compound returned a cytotoxicity at 100 µM of 86.7 ± 0.7%. Also, the “Toxicity on normal skin cells BJ-1 (in words)” value (“Toxicity … (in words)” for short) in [9] is “high toxicity”. In data set [5], this compound registered a cytotoxicity at 100 µM of 39.7 ± 0.8%. In addition, the cytotoxicity at 100 µM in data set [6] was 91.7 ± 1.1%. In addition, the cytotoxicity at 100 µM in [7] came out at 62.4 ± 0.7%. Further, in data set [8], the cytotoxicity at 100 µM was 19.1 ± 0.4%.
For `CCn1c(COc2ccc3c(-c4ccccc4)cc(=O)oc3c2)nnc1SCCOCCO` [Compound 12, 4-Phenyl-7-((4-ethyl-5-((2-(2-hydroxyethoxy)ethyl)thio)-4H-1,2,4-triazol-3-yl)methoxy)-2H-chromen-2-one], the melting point lay in the range of 152 to 153 °C. In data set [1], this compound registered a cytotoxicity at 100 µM of 97.6 ± 0.9%. Further, the “Toxicity … (in words)” value in [9] is “high toxicity”. This compound also yielded a cytotoxicity at 100 µM in data set [5] of 97.2 ± 1.3%. The compound also yielded a cytotoxicity at 100 µM in data set [6] of 84.4 ± 0.8%. In addition, the cytotoxicity at 100 µM in data set [7] was determined as 91.2 ± 0.8%. Moreover, in data set [8], the cytotoxicity at 100 µM turned out to be 92 ± 1.3%.
`CCn1c(COc2ccc3c(-c4ccccc4)cc(=O)oc3c2)nnc1SCC(O)CO` (stereo not shown) [Compound 14, 4-Phenyl-7-((5-((2,3-dihydroxypropyl)thio)-4-ethyl-4H-1,2,4-triazol-3-yl)methoxy)-2H-chromen-2-one] had a melting point of 180 to 181 °C. In data set [1], this compound displayed a cytotoxicity at 100 µM of 98.1 ± 0.3%. The “Toxicity … (in words)” value in [9] is listed as “high toxicity”. The same compound showed a cytotoxicity at 100 µM in [5] of 90.5 ± 1.1%. The same compound yielded a cytotoxicity at 100 µM in [6] of 95.2 ± 0.9%. This compound came in with a cytotoxicity at 100 µM in data set [7] of 97.8 ± 0.7%. Besides, in data set [8], the cytotoxicity at 100 µM was 91.2 ± 2.1%.
Take `CC(=O)OC[C@H]1O[C@@H](OCc2cn(CCCOc3ccc4c(-c5ccccc5)cc(=O)oc4c3)nn2)[C@H](OC(C)=O)[C@@H](OC(C)=O)[C@H]1OC(C)=O` [Compound 21]: the melting point was 114 to 115 °C. In data set [1], this compound had a cytotoxicity at 100 µM of 85.4 ± 1.8% and an IC50 of 38.9 ± 0.8 µM. Besides, in [2], the “Inhibitory activity against VEGFR-2 (in words)” value is on record as “no inhibitory activities” and the IC50 came out at 172 ± 0.02 µM. For the same compound, in data set [3], the “Inhibitory activity against CDK-2/cyclin A2 (in words)” value is “no inhibitory activities” and the IC50 came to 211 ± 0.05 µM. For the same compound, in [4], the “Inhibitory activity against EGFR (in words)” value is listed as “no inhibitory activities” and the IC50 was 123 ± 0.1 µM. In addition, in data set [5], the cytotoxicity at 100 µM turned out to be 58.3 ± 1.7%. The compound further displayed a cytotoxicity at 100 µM in [6] of 64.9 ± 0.5%. In addition, the IC50 in data set [6] (HCT-116, MTT, 0.78–100 µM, ± SD) came out at 82.8 ± 2.3 µM. This compound also displayed a cytotoxicity at 100 µM in data set [7] of 26.4 ± 0.3%. The compound also had a cytotoxicity at 100 µM in data set [8] of 59.2 ± 1.1%.
As for `CC(=O)O[C@@H]1[C@@H](OC(C)=O)[C@H](OCc2cn(CCCOc3ccc4c(-c5ccccc5)cc(=O)oc4c3)nn2)OC[C@H]1OC(C)=O` [Compound 22], the melting point was in the range of 127 to 128 °C. Besides, in [1], the cytotoxicity at 100 µM was determined as 91.9 ± 0.8%. Moreover, in data set [9], the “Toxicity … (in words)” value is reported as “high toxicity”. For the same compound, in data set [5], the cytotoxicity at 100 µM came to 90.6 ± 1.5%. The compound further came in with a cytotoxicity at 100 µM in [6] of 97.3 ± 0.8%. This compound returned a cytotoxicity at 100 µM in [7] of 97.1 ± 1.1%. In [8], this compound gave a cytotoxicity at 100 µM of 57.5 ± 0.5%.
`O=c1cc(-c2ccccc2)c2ccc(OCCCn3cc(CO[C@@H]4O[C@H](CO)[C@H](O)[C@H](O)[C@H]4O)nn3)cc2o1` [Compound 24] returned a melting point of 190 to 191 °C. The cytotoxicity at 100 µM in [1] worked out at 88.2 ± 1.1%. For the same compound, the “Toxicity … (in words)” value in data set [9] was “high toxicity”. For the same compound, in data set [5], the cytotoxicity at 100 µM was determined as 97.6 ± 1.3%. Besides, in data set [6], the cytotoxicity at 100 µM was determined as 99.1 ± 0.8%. In data set [7], this compound returned a cytotoxicity at 100 µM of 97.7 ± 0.8%. The compound further returned a cytotoxicity at 100 µM in data set [8] of 86.5 ± 0.9%.
Consider `O=c1cc(-c2ccccc2)c2ccc(OCCCn3cc(CO[C@@H]4OC[C@@H](O)[C@H](O)[C@H]4O)nn3)cc2o1` [Compound 25], for which the melting point lay within 188 to 189 °C. For the same compound, the cytotoxicity at 100 µM in data set [1] was determined as 81.9 ± 0.9%. In addition, the “Toxicity … (in words)” value in data set [9] was “high toxicity”. In data set [5], this compound returned a cytotoxicity at 100 µM of 90.4 ± 0.8%. The compound further showed a cytotoxicity at 100 µM in data set [6] of 97.1 ± 1.1%. The cytotoxicity at 100 µM in [7] turned out to be 94.2 ± 2.2%. Further, the cytotoxicity at 100 µM in data set [8] was determined as 82.7 ± 1.1%.
The compound `O=c1cc(-c2ccccc2)c2ccc(OCCCCn3cc(CO[C@@H]4O[C@H](CO)[C@H](O)[C@H](O)[C@H]4O)nn3)cc2o1` [Compound 26] showed a melting point of 195 to 196 °C. For the same compound, in [1], the cytotoxicity at 100 µM came out at 91.8 ± 1.2%. For the same compound, the “Toxicity … (in words)” value in data set [9] is given as “high toxicity”. The compound also came in with a cytotoxicity at 100 µM in data set [5] of 66.9 ± 2.2%. Moreover, the cytotoxicity at 100 µM in data set [6] was 83.9 ± 0.9%. This compound also registered a cytotoxicity at 100 µM in [7] of 31.4 ± 0.5%. Besides, the cytotoxicity at 100 µM in [8] came to 2.6 ± 0.2%.

These data come from article PMC9458111, “New 1,2,3-Triazole-Coumarin-Glycoside Hybrids and Their 1,2,4-Triazolyl Thioglycoside Analogs Targeting Mitochondria Apoptotic Pathway: Synthesis, Anticancer Activity and Docking Simulation” (Molecules, 2022).
